Measured values from ChEMBL document CHEMBL1150725, “Cytotoxic and antimicrobial alkaloids from the Fijian sponge Xestospongia caycedoi” (J Nat Prod, 1987).
Converted amounts (≈) assume the structure as drawn.

Columns and labels:
L1210 = assay: Cytotoxicity against mouse L1210 cells; type: functional, cell-based
Staphylococcus aureus = assay: Antimicrobial activity against Staphylococcus aureus at 100 ug/disk; type: functional; conditions: read-out: IZ

COC1=C(C)C(=O)c2ccnc(CO)c2C1=O [RENIEROL]
IC50 (L1210): 3 µg/mL (≈ 12.9 µM) | zone of inhibition at 100 µg/disc (Staphylococcus aureus): 10 mm
